Values after ≈ are worked out from the molar mass of the structure shown.
Key:
CYP2D6 = CYP2D6 (Homo sapiens, UniProt P10635); experiment: Cocktail assay IC50 determination in human liver microsomes; conditions: substrate dextromethorphan, mean ± standard deviation
CYP2C = conditions: ref He et al. (2015); cited from earlier work
CYP2B6 = target: T1, CYP2B6 (Homo sapiens, UniProt P20813); experiment: Cocktail assay IC50 determination in human liver microsomes; conditions: substrate bupropion, mean ± standard deviation
T1 sequence (P20813 1-491): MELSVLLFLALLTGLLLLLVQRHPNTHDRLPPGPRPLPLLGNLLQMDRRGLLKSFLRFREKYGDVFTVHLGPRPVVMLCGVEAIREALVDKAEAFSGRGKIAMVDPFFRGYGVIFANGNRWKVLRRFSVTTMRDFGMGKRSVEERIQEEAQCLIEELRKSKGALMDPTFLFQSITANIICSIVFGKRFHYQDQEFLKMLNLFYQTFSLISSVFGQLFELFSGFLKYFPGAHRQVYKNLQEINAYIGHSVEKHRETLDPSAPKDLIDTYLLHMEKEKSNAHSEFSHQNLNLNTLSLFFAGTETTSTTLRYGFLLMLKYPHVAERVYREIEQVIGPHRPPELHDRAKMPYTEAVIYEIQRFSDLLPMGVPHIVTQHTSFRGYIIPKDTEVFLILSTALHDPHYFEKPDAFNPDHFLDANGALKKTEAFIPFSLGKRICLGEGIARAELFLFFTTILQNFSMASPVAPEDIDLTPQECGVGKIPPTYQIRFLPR

CYP3A4 [1] = target: T2, CYP3A4 (Homo sapiens, UniProt P08684); experiment: Effect of washing to restore CYP3A4 activity, human liver microsomes; type: in vitro ADME; conditions: 50 µM, 30 min preincubation, washed 3 times, midazolam
Target sequence in this assay (P08684 whole entry): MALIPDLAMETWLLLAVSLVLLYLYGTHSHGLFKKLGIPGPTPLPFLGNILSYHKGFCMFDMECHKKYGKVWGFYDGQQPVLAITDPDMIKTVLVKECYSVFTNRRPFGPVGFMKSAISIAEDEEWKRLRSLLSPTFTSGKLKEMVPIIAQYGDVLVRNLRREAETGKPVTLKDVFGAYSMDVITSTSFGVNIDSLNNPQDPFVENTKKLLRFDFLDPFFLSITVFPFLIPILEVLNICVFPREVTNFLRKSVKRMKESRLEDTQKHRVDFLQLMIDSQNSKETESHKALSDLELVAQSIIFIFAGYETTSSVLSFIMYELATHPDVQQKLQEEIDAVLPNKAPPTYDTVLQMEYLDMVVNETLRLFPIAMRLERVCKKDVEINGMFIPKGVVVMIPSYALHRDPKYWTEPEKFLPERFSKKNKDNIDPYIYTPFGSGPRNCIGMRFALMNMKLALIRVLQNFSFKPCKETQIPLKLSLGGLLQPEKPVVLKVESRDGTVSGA

CYP3A4 (testosterone) = conditions: ref He et al. (2015); cited from earlier work
CYP1A2 [2] = target: T3, CYP1A2 (Homo sapiens, UniProt P05177); experiment: Single concentration; conditions: human liver microsomes
T3 sequence (P05177 1-516): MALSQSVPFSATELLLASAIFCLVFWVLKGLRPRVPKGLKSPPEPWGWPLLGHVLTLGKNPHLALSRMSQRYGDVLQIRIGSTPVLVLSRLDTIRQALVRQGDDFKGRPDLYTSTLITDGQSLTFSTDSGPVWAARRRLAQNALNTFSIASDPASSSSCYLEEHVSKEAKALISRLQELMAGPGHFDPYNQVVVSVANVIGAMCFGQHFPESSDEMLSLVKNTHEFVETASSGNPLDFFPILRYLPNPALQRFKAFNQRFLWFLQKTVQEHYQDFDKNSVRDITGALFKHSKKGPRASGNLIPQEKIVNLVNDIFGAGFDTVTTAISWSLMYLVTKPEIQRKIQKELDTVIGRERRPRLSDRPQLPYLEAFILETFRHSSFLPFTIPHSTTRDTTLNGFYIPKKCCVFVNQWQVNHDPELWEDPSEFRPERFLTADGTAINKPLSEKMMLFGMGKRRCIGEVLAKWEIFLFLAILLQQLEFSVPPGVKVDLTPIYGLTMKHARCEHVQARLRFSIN

CYP3A4 [3] = target: T2, CYP3A4; experiment: Effect of washing to restore CYP3A4 activity, recombinant CYP3A4; type: in vitro ADME; conditions: recombinant CYP3A4, 10 µM, 30 min preincubation, washed 3 times, midazolam
Target sequence in this assay (P08684 2-503 limits assumed): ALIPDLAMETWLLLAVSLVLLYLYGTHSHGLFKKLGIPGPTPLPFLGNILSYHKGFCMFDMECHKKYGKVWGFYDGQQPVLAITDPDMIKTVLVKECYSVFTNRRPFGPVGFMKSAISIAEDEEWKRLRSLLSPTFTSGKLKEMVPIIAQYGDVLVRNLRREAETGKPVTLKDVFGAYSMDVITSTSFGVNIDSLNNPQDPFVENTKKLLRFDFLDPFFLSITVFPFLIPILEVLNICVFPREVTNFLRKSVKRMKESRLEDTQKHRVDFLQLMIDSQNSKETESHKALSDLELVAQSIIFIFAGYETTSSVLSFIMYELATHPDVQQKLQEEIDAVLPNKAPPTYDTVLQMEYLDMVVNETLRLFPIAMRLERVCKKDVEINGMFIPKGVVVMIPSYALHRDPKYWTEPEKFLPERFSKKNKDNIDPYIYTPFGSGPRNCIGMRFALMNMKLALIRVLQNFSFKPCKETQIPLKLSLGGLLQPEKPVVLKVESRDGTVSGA

CYP2C8 = target: T4, CYP2C8 (Homo sapiens, UniProt P10632); experiment: Cocktail assay IC50 determination in human liver microsomes; conditions: substrate amodiaquine, mean ± standard deviation
T4 sequence (P10632 1-490): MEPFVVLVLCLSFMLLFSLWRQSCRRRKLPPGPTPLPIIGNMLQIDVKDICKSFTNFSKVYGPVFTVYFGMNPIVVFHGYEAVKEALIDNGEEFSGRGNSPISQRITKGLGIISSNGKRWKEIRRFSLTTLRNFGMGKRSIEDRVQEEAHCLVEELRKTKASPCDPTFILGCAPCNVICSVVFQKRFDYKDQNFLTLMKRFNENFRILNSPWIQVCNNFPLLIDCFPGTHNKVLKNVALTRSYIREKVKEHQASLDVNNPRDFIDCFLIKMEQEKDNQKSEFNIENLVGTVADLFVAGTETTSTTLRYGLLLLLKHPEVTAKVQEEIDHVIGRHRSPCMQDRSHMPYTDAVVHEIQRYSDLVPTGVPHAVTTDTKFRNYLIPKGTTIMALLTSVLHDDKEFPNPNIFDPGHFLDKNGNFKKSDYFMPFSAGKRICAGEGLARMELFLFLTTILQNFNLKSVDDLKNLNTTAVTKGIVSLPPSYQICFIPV

CYP2E1 = CYP2E1 (Homo sapiens, UniProt P05181); experiment: as above; conditions: substrate chloroxazone
CYP1A2 [4] = target: T3, CYP1A2; conditions: ref He et al. (2015); cited from earlier work

Chain of CYP2D6 (P10635 whole entry): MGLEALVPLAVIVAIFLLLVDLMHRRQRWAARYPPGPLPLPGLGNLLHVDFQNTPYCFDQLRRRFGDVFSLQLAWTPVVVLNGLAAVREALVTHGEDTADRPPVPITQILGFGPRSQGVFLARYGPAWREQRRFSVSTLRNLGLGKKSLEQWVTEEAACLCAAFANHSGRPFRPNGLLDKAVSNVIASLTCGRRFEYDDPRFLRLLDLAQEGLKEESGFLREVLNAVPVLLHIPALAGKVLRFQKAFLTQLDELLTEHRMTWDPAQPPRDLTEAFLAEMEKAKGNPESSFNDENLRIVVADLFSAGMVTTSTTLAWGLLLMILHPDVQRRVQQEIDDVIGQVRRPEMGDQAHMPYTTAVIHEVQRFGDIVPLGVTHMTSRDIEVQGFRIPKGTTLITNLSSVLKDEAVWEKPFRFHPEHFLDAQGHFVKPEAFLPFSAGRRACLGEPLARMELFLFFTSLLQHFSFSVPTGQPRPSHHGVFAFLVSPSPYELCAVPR
Chain of CYP2E1 (P05181 whole entry): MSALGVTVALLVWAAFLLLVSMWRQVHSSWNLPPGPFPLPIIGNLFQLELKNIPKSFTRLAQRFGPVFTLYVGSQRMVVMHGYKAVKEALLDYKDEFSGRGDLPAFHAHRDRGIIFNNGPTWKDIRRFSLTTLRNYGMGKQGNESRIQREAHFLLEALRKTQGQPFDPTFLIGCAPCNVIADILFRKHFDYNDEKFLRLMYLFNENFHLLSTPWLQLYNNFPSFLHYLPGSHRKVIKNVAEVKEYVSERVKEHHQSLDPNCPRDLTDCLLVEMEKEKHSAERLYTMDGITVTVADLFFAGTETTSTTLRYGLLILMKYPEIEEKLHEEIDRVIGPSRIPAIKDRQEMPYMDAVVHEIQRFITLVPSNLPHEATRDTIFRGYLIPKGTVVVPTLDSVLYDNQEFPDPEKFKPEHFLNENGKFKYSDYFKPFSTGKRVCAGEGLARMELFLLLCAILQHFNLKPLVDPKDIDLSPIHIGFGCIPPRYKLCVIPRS

## C=CC(C)(C)c1cc(/C=C/C(=O)c2ccc(O)cc2)c(OC)cc1O [Licochalcone A, licochalcone A]
CYP2D6
  IC50, CYP2D6: 17.23 ± 1.68 µg/mL (≈ 50.9 µM)
CYP2C
  inhibition of CYP2C, in words: strongly inhibited
CYP2B6
  IC50, CYP2B6: 17.96 ± 4.58 µg/mL (≈ 53.1 µM)
CYP3A4 [1]
  remaining enzyme activity after washing out the inhibitor: 57%
CYP3A4 (testosterone)
  inhibition of CYP3A4 (testosterone), in words: strongly inhibited
CYP1A2 [2]
  inhibition of CYP1A2 at 10 µM, in words: weakly inhibited
CYP3A4 [3]
  remaining enzyme activity after washing out the inhibitor: 16.7%
CYP2C8
  IC50, CYP2C8: 1.05 ± 0.08 µg/mL (≈ 3.1 µM)
CYP2E1
  IC50, CYP2E1: >25 µg/mL
CYP1A2 [4]
  inhibition of CYP1A2, in words: strongly inhibited

From paper PMC5656517 (European journal of pharmaceutical sciences : official …, 2017)
